Source: patent US9161989B2, “Cupredoxin derived transport agents and methods of use thereof” (priority 2004, dated 2015)
Where two headings read alike, the source gives them in different places.

System: UISO-MeI-2 cells
Type: cell-based

Row | Molecule | Effect on uptake of azurin in UISO-MeI-2 cells | Effect on uptake of azurin in UISO-MeI-2 cells (20 pM)
1 | C[C@H]1CCC/C=C/[C@@H]2C[C@H](O)C[C@H]2[C@H](O)/C=C/C(=O)O1 [Brefeldin A] | no significant effect | –
2 | carbonyl cyanide m-chlorophrnylhydrazone [CCCP] | – | significantly reduced
3 | C=C1[C@@H](C)[C@H]2[C@H](Cc3ccccc3)NC(=O)[C@]23[C@H](OC(C)=O)/C=C/[C@@](C)(O)C(=O)[C@@H](C)C/C=C/[C@H]3[C@@H]1O [cytochalasin D] | significantly reduced | –
